Four molecules from patent US20230265151A1, “GIP/GLP1 CO-AGONIST COMPOUNDS” (priority 2020, published 2023) can be followed below.

Type in all cases: cell-based
For assay [1], the target named is T1, hGIPR (Homo sapiens, UniProt P48546).
T1 construct: expressed in transfected cells
T1 sequence (P48546 22-466): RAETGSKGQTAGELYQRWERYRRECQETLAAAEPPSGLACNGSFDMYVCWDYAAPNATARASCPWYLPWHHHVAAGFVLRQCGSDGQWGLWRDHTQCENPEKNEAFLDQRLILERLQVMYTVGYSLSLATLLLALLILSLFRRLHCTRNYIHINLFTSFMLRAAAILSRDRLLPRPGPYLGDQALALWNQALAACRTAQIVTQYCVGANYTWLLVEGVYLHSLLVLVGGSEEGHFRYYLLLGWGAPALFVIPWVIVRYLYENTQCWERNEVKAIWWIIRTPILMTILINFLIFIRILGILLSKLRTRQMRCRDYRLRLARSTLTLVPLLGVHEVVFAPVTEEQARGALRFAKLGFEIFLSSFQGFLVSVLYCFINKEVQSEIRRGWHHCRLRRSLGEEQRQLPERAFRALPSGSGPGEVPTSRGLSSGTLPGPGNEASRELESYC
As to the kind of experiment: Functional cAMP formation (HTRF) in HEK-293 clonal cells expressing hGIPR, 0.1% bovine casein, without or with 1.0% human serum albumin. As to conditions: for EC50: geometric mean. Put shortly:
(§1)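 Cells were stimulated with peptide for 30 min at 37° C, then lysed in buffer carrying cAMP-d2 and anti-cAMP Eu3+-cryptate for a competitive HTRF read after at least 60 min at room temperature. The 665/620 nm ratio was converted to nM cAMP against a standard curve.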

In assay [2] the target is T2, hGCGR (Homo sapiens, UniProt P47871).
T2 construct: expressed in transfected cells
T2 sequence (P47871 26-477): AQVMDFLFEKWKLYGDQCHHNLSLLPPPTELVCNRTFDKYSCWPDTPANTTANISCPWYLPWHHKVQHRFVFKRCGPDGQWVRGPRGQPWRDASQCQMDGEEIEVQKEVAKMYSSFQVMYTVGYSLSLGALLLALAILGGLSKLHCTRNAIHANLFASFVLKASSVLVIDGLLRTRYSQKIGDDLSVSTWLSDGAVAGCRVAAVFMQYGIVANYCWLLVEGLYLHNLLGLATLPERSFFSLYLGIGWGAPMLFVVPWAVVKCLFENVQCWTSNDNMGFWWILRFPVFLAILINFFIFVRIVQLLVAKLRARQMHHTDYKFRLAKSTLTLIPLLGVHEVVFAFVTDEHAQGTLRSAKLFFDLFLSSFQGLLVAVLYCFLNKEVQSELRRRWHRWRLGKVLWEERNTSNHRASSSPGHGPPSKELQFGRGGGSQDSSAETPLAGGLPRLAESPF
As to the kind of experiment: Functional cAMP formation (HTRF) in HEK-293 clonal cells expressing hGCGR, 0.1% bovine casein, without or with 1.0% human serum albumin. As to conditions: geometric mean. The method in brief: as §1
On the technique in general: cAMP levels reflect the balance of adenylyl cyclase and phosphodiesterase activity.

For assay [3], the target named is hGLP-1R (Homo sapiens, UniProt P43220). As to the kind of experiment: Functional cAMP formation (HTRF) in HEK-293 clonal cells expressing hGLP-1R, 0.1% bovine casein, without or with 1.0% human serum albumin. Set-up: expressed in transfected cells. As to conditions: for Emax: read-out: hGLP-1R Emax, % ± SEM; for EC50: geometric mean. Put shortly:
as §1

[4] abbreviates: 0.1% bovine casein and 1.0% human serum albumin, 37° C., read-out: hGIPR EC50, nM (SEM, n).
The mark [5] stands for this setting: HEK293, 0.1% bovine casein and 1.0% human serum albumin, 37° C., percent of maximal response to GIP(1-42)NH2, read-out: hGIPR Emax, % ± SEM.
[6] abbreviates: cAMP, incubated at 37° C., 0.1% bovine casein (no human serum albumin), read-out: hGIPR EC50, nM (SEM, n).
The mark [7] stands for this setting: 0.1% bovine casein and 1.0% human serum albumin, 37° C., read-out: hGCGR EC50, nM (SEM, n).
Setting [8] is: cAMP, incubated at 37° C., 0.1% bovine casein (no human serum albumin), read-out: hGCGR EC50, nM (SEM, n).
[9] abbreviates: cAMP, incubated at 37° C., 0.1% bovine casein (no human serum albumin), read-out: hGLP-1R EC50, nM (SEM, n).

Like-named read-outs stand apart in the source and are kept apart here. *1 amine or outer side, *2 acyl side, *3 side chain or, on linkers, in order; H or OH if unused. Where a SMILES comes first, the peptide text is derived from it. Side-chain parts run from the residue outwards. [ ]: non-standard residue; d: D form. The star is where a group is joined. αMePhe(2-F) = C[C@](N)(Cc1ccccc1F)C(=O)O; γGlu = O=C(O)[C@H](CCC(=O)[*:2])N[*:1]; C14 diacid = O=C(O)CCCCCCCCCCCCC(=O)*; εLys = N[C@@H](CCCCN[*:1])C(=O)[*:2]; αMeY = C[C@](N)(Cc1ccc(O)cc1)C(=O)O; 4Pal = N[C@@H](Cc1ccncc1)C(=O)O; αMeL = CC(C)C[C@](C)(N)C(=O)O; Orn = NCCC[C@H](N)C(=O)O; AEEA = NCCOCCOCC(=O)O; Aib = CC(C)(N)C(=O)O Where only a bound is given, the exact number is not on record here.

Sequence of hGLP-1R (P43220 24-463): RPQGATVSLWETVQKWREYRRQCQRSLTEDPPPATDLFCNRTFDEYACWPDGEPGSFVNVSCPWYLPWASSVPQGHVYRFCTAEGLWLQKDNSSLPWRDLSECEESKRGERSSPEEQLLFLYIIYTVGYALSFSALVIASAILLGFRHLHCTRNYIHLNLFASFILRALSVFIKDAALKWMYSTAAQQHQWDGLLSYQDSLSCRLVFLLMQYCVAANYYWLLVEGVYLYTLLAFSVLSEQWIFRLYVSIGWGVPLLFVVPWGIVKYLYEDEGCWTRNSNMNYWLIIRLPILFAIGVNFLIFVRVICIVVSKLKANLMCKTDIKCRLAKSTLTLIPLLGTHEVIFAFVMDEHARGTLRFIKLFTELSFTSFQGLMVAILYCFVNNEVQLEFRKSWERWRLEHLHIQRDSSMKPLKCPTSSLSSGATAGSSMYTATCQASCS

By EC50 is commonly meant the concentration at which the effect is half-maximal. As a reminder, the Emax is the maximal effect, on the per cent scale that the assay sets. Regarding `CC[C@H](C)[C@H](NC(=O)[C@H](CCCN)NC(=O)[C@H](CC(=O)O)NC(=O)[C@H](CC(C)C)NC(=O)[C@](C)(CC(C)C)NC(=O)[C@@H](NC(=O)[C@H](CO)NC(=O)[C@H](Cc1ccncc1)NC(=O)[C@H](CC(=O)O)NC(=O)[C@H](CO)NC(=O)[C@@H](NC(=O)[C@](C)(Cc1ccccc1F)NC(=O)[C@@H](NC(=O)CNC(=O)[C@H](CCC(=O)O)NC(=O)C(C)(C)NC(=O)[C@@H](N)Cc1ccc(O)cc1)[C@@H](C)O)[C@@H](C)O)[C@@H](C)CC)C(=O)N[C@@H](C)C(=O)N[C@@H](CCC(N)=O)C(=O)NC(C)(C)C(=O)N[C@@H](CCC(=O)O)C(=O)N[C@@H](Cc1ccccc1)C(=O)N[C@H](C(=O)N[C@H](CCC(=O)O)C(=O)N[C@@](C)(Cc1ccc(O)cc1)C(=O)N[C@@H](CC(C)C)C(=O)N[C@H](C(=O)N[C@@H](CCCCNC(=O)COCCOCCNC(=O)COCCOCCNC(=O)CCCCCCCCCCCCC(=O)O)C(=O)NCC(=O)NCC(=O)N1CCC[C@H]1C(=O)N[C@@H](CO)C(=O)N[C@@H](CO)C(=O)NCC(=O)N[C@@H](C)C(=O)N1CCC[C@H]1C(=O)N1CCC[C@H]1C(=O)N1CCC[C@H]1C(=O)N[C@@H](CO)C(=O)N[C@@H](CCCCNC(=O)COCCOCCNC(=O)COCCOCCNC(=O)CCCCCCCCCCCCC(=O)O)C(N)=O)[C@@H](C)CC)[C@@H](C)CC` [Example 223] (H-Y[Aib]EGT[αMePhe(2-F)]TSD[4Pal]SI[αMeL]LD[Orn]IAQ[Aib]EFI[dE][αMeY]LIK([AEEA-AEEA-C14 diacid])GGPSSGAPPPSK([AEEA-AEEA-C14 diacid])-NH2), the EC50 is 7.84 nM in assay [1] (setting [4]); 0.0252 nM in assay [1] (setting [6]); > 9950 nM in assay [2] (setting [7]); > 9950 nM in assay [2] (setting [8]); 1.43 nM in assay [3] (setting [9]). For the same molecule, the maximal response (Emax) in assay [1] (setting [5]) was 79.2%; in assay [3] (HEK293, 0.1% bovine casein and 1.0% human serum albumin, 37° C., percent of maximal response to GLP-1(7-36)NH2), 115%; in assay [3] (HEK293, percent of maximal response to GLP-1(7-36)NH2, 37° C., 0.1% bovine casein, arithmetic mean), 94%.

Take `CC[C@H](C)[C@H](NC(=O)[C@H](CC(C)C)NC(=O)[C@](C)(Cc1ccc(O)cc1)NC(=O)[C@@H](CCC(=O)O)NC(=O)[C@@H](NC(=O)[C@H](Cc1ccccc1)NC(=O)[C@H](CCC(=O)O)NC(=O)C(C)(C)NC(=O)[C@H](CCC(N)=O)NC(=O)[C@H](C)NC(=O)[C@H](CCCCNC(=O)[C@@H](N)CCCCNC(=O)CC[C@H](NC(=O)CCCCCCCCCCCCC(=O)O)C(=O)O)NC(=O)[C@H](CCCN)NC(=O)[C@H](CC(=O)O)NC(=O)[C@H](CC(C)C)NC(=O)[C@](C)(CC(C)C)NC(=O)[C@@H](NC(=O)[C@H](CO)NC(=O)[C@H](Cc1ccncc1)NC(=O)[C@H](CC(=O)O)NC(=O)[C@H](CO)NC(=O)[C@@H](NC(=O)[C@](C)(Cc1ccccc1F)NC(=O)[C@@H](NC(=O)CNC(=O)[C@H](CCC(=O)O)NC(=O)C(C)(C)NC(=O)[C@@H](N)Cc1ccc(O)cc1)[C@@H](C)O)[C@@H](C)O)[C@@H](C)CC)[C@@H](C)CC)C(=O)N[C@@H](CCC(=O)O)C(=O)NCC(=O)NCC(=O)N[C@@H](CCCCNC(=O)[C@@H](N)CCCCNC(=O)CC[C@H](NC(=O)CCCCCCCCCCCCC(=O)O)C(=O)O)C(N)=O` [Example 186] (H-Y[Aib]EGT[αMePhe(2-F)]TSD[4Pal]SI[αMeL]LD[Orn]K([εLys-γGlu-C14 diacid])AQ[Aib]EFI[dE][αMeY]LIEGGK([εLys-γGlu-C14 diacid])-NH2; N-terminus assumed): the EC50 in assay [1] (setting [4]) is 2.19 nM; in assay [1] (setting [6]), 0.0274 nM; in assay [2] (setting [7]), > 9950 nM; in assay [2] (setting [8]), > 9950 nM; in assay [3] (0.1% bovine casein and 1.0% human serum albumin, 37° C., read-out: hGLP-1R EC50, nM (SEM, n)) it was 24.3 nM; in assay [3] (setting [9]), 0.371 nM. Besides, the Emax in assay [1] (setting [5]) came out at 85.6%.

`CCCCCCCCCCCC(=O)N[C@@H](CCC(=O)NCCOCCOCC(=O)NCCOCCOCC(=O)NCCCC[C@H](NC(=O)[C@H](CCCN)NC(=O)[C@H](CC(=O)O)NC(=O)[C@H](CC(C)C)NC(=O)[C@](C)(CC(C)C)NC(=O)[C@@H](NC(=O)[C@H](CO)NC(=O)[C@H](Cc1ccncc1)NC(=O)[C@H](CC(=O)O)NC(=O)[C@H](CO)NC(=O)[C@@H](NC(=O)[C@](C)(Cc1ccccc1F)NC(=O)[C@@H](NC(=O)CNC(=O)[C@H](CCC(=O)O)NC(=O)C(C)(C)NC(=O)[C@@H](N)Cc1ccc(O)cc1)[C@@H](C)O)[C@@H](C)O)[C@@H](C)CC)C(=O)N[C@@H](C)C(=O)N[C@@H](CCC(N)=O)C(=O)NC(C)(C)C(=O)N[C@@H](CCCN)C(=O)N[C@@H](Cc1ccccc1)C(=O)N[C@H](C(=O)N[C@H](CCC(=O)O)C(=O)N[C@@](C)(Cc1ccc(O)cc1)C(=O)N[C@@H](CC(C)C)C(=O)N[C@H](C(=O)N[C@@H](CCCCNC(=O)COCCOCCNC(=O)COCCOCCNC(=O)CC[C@H](NC(=O)CCCCCCCCCCC)C(=O)O)C(=O)NCC(=O)NCC(=O)N1CCC[C@H]1C(=O)N[C@@H](CO)C(=O)N[C@@H](CO)C(=O)NCC(=O)N[C@@H](C)C(=O)N1CCC[C@H]1C(=O)N1CCC[C@H]1C(=O)N1CCC[C@H]1C(=O)N[C@@H](CO)C(N)=O)[C@@H](C)CC)[C@@H](C)CC)C(=O)O` [Example 299]: the EC50 in assay [1] (cAMP, 37° C., 0.1% bovine casein (no human serum albumin), read-out: hGIPR EC50, nM (SEM, n)) is 0.0104 nM; in assay [2] (setting [7]), > 9950 nM; in assay [2] (cAMP, 37° C., 0.1% bovine casein (no human serum albumin), read-out: hGCGR EC50, nM (SEM, n)), > 9950 nM; in assay [3] (cAMP, 37° C., 0.1% bovine casein (no human serum albumin), read-out: hGLP-1R EC50, nM (SEM, n)), 0.126 nM.

In the case of `CC[C@H](C)[C@H](NC(=O)[C@H](CC(C)C)NC(=O)[C@](C)(Cc1ccc(O)cc1)NC(=O)[C@H](CCCCNC(=O)COCCOCCNC(=O)COCCOCCNC(=O)CC[C@H](NC(=O)CCCCCCCCCCCCC(=O)O)C(=O)O)NC(=O)[C@@H](NC(=O)[C@](C)(Cc1ccccc1)NC(=O)[C@H](CCC(=O)O)NC(=O)C(C)(C)NC(=O)[C@H](CCC(N)=O)NC(=O)[C@H](C)NC(=O)[C@H](CCCCNC(=O)COCCOCCNC(=O)COCCOCCNC(=O)CC[C@H](NC(=O)CCCCCCCCCCCCC(=O)O)C(=O)O)NC(=O)[C@H](CCCN)NC(=O)[C@H](CC(=O)O)NC(=O)[C@H](CC(C)C)NC(=O)[C@](C)(CC(C)C)NC(=O)[C@@H](NC(=O)[C@H](CO)NC(=O)[C@@H](NC(=O)[C@H](CC(=O)O)NC(=O)[C@H](CO)NC(=O)[C@@H](NC(=O)[C@](C)(Cc1ccccc1F)NC(=O)[C@@H](NC(=O)CNC(=O)[C@H](CCC(=O)O)NC(=O)C(C)(C)NC(=O)[C@@H](N)Cc1ccc(O)cc1)[C@@H](C)O)[C@@H](C)O)C(C)C)[C@@H](C)CC)[C@@H](C)CC)C(=O)N[C@@H](CCC(=O)O)C(=O)NCC(=O)NCC(=O)N1CCC[C@H]1C(=O)N[C@@H](CO)C(=O)N[C@@H](CO)C(=O)NCC(=O)N[C@@H](C)C(=O)N1CCC[C@H]1C(=O)N1CCC[C@H]1C(=O)N1CCC[C@H]1C(=O)N[C@@H](CO)C(N)=O` [Example 118], the Emax in assay [1] (HEK293, read-out: hGIPR Emax, % ± SEM, percent of maximal response to GIP(1-42)NH2, 37° C., 0.1% bovine casein, arithmetic mean) stood at 94.7%. Moreover, the EC50 in assay [1] (hGIPR EC50, nM (SEM, n), cAMP, incubated at 37° C., 0.1% bovine casein (no human serum albumin)) was 0.0547 nM; in assay [2] (hGCGR EC50, nM (SEM, n), cAMP, incubated at 37° C., 0.1% bovine casein (no human serum albumin)), > 9950 nM; in assay [3] (hGLP-1R EC50, nM (SEM, n), cAMP, incubated at 37° C., 0.1% bovine casein (no human serum albumin)), 0.437 nM.
